The results in this text go back to article PMC5803145, “Study on the Structural Effect of Maltoligosaccharides on Cytochrome c Complexes Stabilities by Native Mass Spectrometry” (Natural Products and Bioprospecting, 2018).

T1 sequence (P00004 2-105): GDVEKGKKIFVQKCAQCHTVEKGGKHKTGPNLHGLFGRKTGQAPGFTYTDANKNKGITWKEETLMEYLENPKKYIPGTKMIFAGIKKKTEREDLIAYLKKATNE

The assay addresses T1, Cytochrome c (Cyt c) from equine / horse heart (Equus caballus, UniProt P00004).
T1 construct: gene CYCS; mature heme-containing protein
Description: native ESI-MS, deconvoluted peak ratios. In kind it is binding. The conditions noted are these: aqueous solution, 0.5 uM Cyt c, 3-7 uM ligand, room temperature, 1 h; stepwise constant of the 1:1 complex. The source says:
native ESI-MS, deconvoluted peak ratios on Cytochrome c (Cyt c) from equine / horse heart
As to `OC[C@H]1O[C@H](O[C@H]2[C@H](O)[C@@H](O)C(O)O[C@@H]2CO)[C@H](O)[C@@H](O)[C@@H]1O` (stereo partly drawn) [Mal II, maltose], the “Ka,1 (10^4 L mol^-1)” value is 3.227 x 10^4 (RSD 2.9%).

Regarding `OC[C@H]1O[C@H](O[C@H]2[C@H](O)[C@@H](O)[C@@H](O[C@H]3[C@H](O)[C@@H](O)C(O)O[C@@H]3CO)O[C@@H]2CO)[C@H](O)[C@@H](O)[C@@H]1O` (stereo partly drawn) [Mal III, maltotriose], the “Ka,1 (10^4 L mol^-1)” value is recorded as 3.842 x 10^4 (RSD 2.5%).

With `OC[C@H]1O[C@H](O[C@H]2[C@H](O)[C@@H](O)[C@@H](O[C@H]3[C@H](O)[C@@H](O)[C@@H](O[C@H]4[C@H](O)[C@@H](O)C(O)O[C@@H]4CO)O[C@@H]3CO)O[C@@H]2CO)[C@H](O)[C@@H](O)[C@@H]1O` (stereo partly drawn) [Mal IV, maltotetraose], the “Ka,1 (10^4 L mol^-1)” value is reported as 3.279 x 10^4 (RSD 5.6%).

Consider `OC[C@H]1O[C@H](O[C@H]2[C@H](O)[C@@H](O)[C@@H](O[C@H]3[C@H](O)[C@@H](O)[C@@H](O[C@H]4[C@H](O)[C@@H](O)[C@@H](O[C@H]5[C@H](O)[C@@H](O)C(O)O[C@@H]5CO)O[C@@H]4CO)O[C@@H]3CO)O[C@@H]2CO)[C@H](O)[C@@H](O)[C@@H]1O` (stereo partly drawn) [Mal V, maltopentaose], for which the “Ka,1 (10^4 L mol^-1)” value is 2.654 x 10^4 (RSD 0.80%).

Take `OC[C@H]1O[C@H](O[C@H]2[C@H](O)[C@@H](O)[C@@H](O[C@H]3[C@H](O)[C@@H](O)[C@@H](O[C@H]4[C@H](O)[C@@H](O)[C@@H](O[C@H]5[C@H](O)[C@@H](O)[C@@H](O[C@H]6[C@H](O)[C@@H](O)C(O)O[C@@H]6CO)O[C@@H]5CO)O[C@@H]4CO)O[C@@H]3CO)O[C@@H]2CO)[C@H](O)[C@@H](O)[C@@H]1O` (stereo partly drawn) [Mal VI, maltohexaose]: the “Ka,1 (10^4 L mol^-1)” value is recorded as 2.438 x 10^4 (RSD 2.5%).

As for `OC[C@H]1O[C@H](O[C@H]2[C@H](O)[C@@H](O)[C@@H](O[C@H]3[C@H](O)[C@@H](O)[C@@H](O[C@H]4[C@H](O)[C@@H](O)[C@@H](O[C@H]5[C@H](O)[C@@H](O)[C@@H](O[C@H]6[C@H](O)[C@@H](O)[C@@H](O[C@H]7[C@H](O)[C@@H](O)C(O)O[C@@H]7CO)O[C@@H]6CO)O[C@@H]5CO)O[C@@H]4CO)O[C@@H]3CO)O[C@@H]2CO)[C@H](O)[C@@H](O)[C@@H]1O` (stereo partly drawn) [Mal VII, maltoheptaose], the “Ka,1 (10^4 L mol^-1)” value is reported as 2.205 x 10^4 (RSD 1.6%).
